Experimental data as given in patent US10206906B2, “Synergistic combination of a phenolic-rich maple syrup extract and an antibiotic” (priority 2015, dated 2019).
In brackets after ≈: the same amount, converted by molar mass.

How the values were obtained:
P. aeruginosa PAO1 [1] = test: Checkerboard microdilution assay (growth inhibition synergy); format: cell-based, Pseudomonas aeruginosa; conditions: for FIC of ciprofloxacin: ciprofloxacin in combination with the labelled phenolic constituent; for FICI: labelled phenolic constituent + ciprofloxacin, * = synergistic interaction; for FIC of compound: labelled phenolic constituent in combination with ciprofloxacin
Description: (§1) The checkerboard microdilution assay is used for evaluation of in vitro antimicrobial synergy between two compounds (i.e., antibiotic/PRMSE, antibiotic/pure phenolic compound, and pure phenolic compounds with each other). Two-fold serial dilutions are prepared in MHB-II for each of the two compounds under study. The serial dilutions are then loaded into 96 well plates to achieve combinations having different concentrations of each of the two compounds. Each well is subsequently inoculated with 10^6 CFU mL^−1 of the desired bacterial strain and incubated at 37° C. for 18 h under static conditions. The Fractional Inhibitory Concentration Index (FICI) for each combination is calculated by using the following formula: FICcomponent 1=MICcomponent 1, in combination/MICcomponent 1,alone FICI=FICcomponent 1+FICcomponent 2
(§2) The FICIs are interpreted as follows: FICI of […] (synergy); 0.5<FICI ≤1 (no interaction/indifference); FICI of >4 (antagonism).

P. aeruginosa PA14 [2] = test: as above; format: cell-based, Pseudomonas aeruginosa; conditions: for FIC of ciprofloxacin: ciprofloxacin in combination with the labelled phenolic constituent; for FICI: labelled phenolic constituent + ciprofloxacin, * = synergistic interaction; for FIC of compound: labelled phenolic constituent in combination with ciprofloxacin
Description: as §1, §2

P. mirabilis HI4320 [3] = test: Determination of minimum inhibitory concentration (MIC); format: cell-based; conditions: Proteus mirabilis, HI4320, 18 h; read-out: MIC
Description: (§3) A range of concentration of antibiotics, ciprofloxacin (0.0003-0.25 μg mL^−1) and carbenicillin (0.5-512 μg mL^−1), are chosen due to their known potency against all four bacterial strains. Dilutions are prepared in flat bottom, 96 well microtitre plates (Falcon™, Corning™, Fisher Scientific, ON, Canada). Each well of a microtitre plate is then inoculated with the desired bacterial strain (grown in MHB-II and diluted to […]) and the plate is incubated at 37° C. for 18 h under static conditions. Bacterial growth is assessed by (i) monitoring the optical density of the cell suspension in each well at 600 nm (OD600 nm), and (ii) the resazurin microtitre plate assay. In the resazurin microtitre plate assay, each well of a microtitre plate is supplemented with 20 μM resazurin, incubated in the dark for 20 min at room temperature, followed by fluorescence measurements at ex/em 570/590 nm using a TECAN Infinite M200 Pro microplate reader (Tecan Group Ltd., Switzerland). The lowest concentration of a compound able to prevent increase in OD600 nm and resazurin fluorescence intensity is recorded as the MIC for that compound.

P. aeruginosa PAO1 [4] = test: as above; format: cell-based; conditions: Pseudomonas aeruginosa, PAO1, 18 h; read-out: MIC
Description: as §3

P. aeruginosa PA14 [5] = test: as above; format: cell-based; conditions: Pseudomonas aeruginosa, PA14, 18 h; read-out: MIC
Description: as §3

E. coli CFT073 [6] = test: as above; format: cell-based; conditions: Escherichia coli, CFT073, 18 h; read-out: MIC
Description: as §3

P. mirabilis HI4320 [7] = test: Checkerboard microdilution assay (growth inhibition synergy); format: cell-based, Proteus mirabilis; conditions: for FIC of ciprofloxacin: ciprofloxacin in combination with the labelled phenolic constituent; for FICI: labelled phenolic constituent + ciprofloxacin, * = synergistic interaction; for FIC of compound: labelled phenolic constituent in combination with ciprofloxacin
Description: as §1, §2

E. coli CFT073 [8] = test: as above; format: cell-based, Escherichia coli; conditions: for FIC of ciprofloxacin: ciprofloxacin in combination with the labelled phenolic constituent; for FICI: labelled phenolic constituent + ciprofloxacin, * = synergistic interaction; for FIC of compound: labelled phenolic constituent in combination with ciprofloxacin
Description: as §1, §2

[9] = test system: outer membrane of E. coli CFT073; test: Outer membrane permeabilization, NPN uptake assay; format: cell-based, Escherichia coli; conditions: positive control gentamicin, above and below MICs
Description: (§4) The cells are harvested, washed with 5 mM HEPES buffer (pH 7.2), and resuspended in the same volume (10 mL) of 5 mM HEPES buffer (pH 7.2) containing 1 mM N-ethylmaleimide (NEM, Sigma-Aldrich Canada). Aliquots (1 mL) are mixed with NPN to a final concentration of 10 μM (in cell suspension) and fluorescence is measured using the microplate reader (ex/em 350/420 nm).

[10] = test system: outer membrane of P. aeruginosa PAO1; test: Outer membrane permeabilization, NPN uptake assay; format: cell-based, Pseudomonas aeruginosa; conditions: positive control gentamicin, above and below MICs
Description: as §4

[11] = test system: outer membrane of P. aeruginosa PA14; test: Outer membrane permeabilization, NPN uptake assay; format: cell-based, Pseudomonas aeruginosa; conditions: positive control gentamicin, above and below MICs
Description: as §4

[12] = test system: outer membrane of P. mirabilis HI4320; test: Outer membrane permeabilization, NPN uptake assay; format: cell-based, Proteus mirabilis; conditions: positive control gentamicin, above and below MICs
Description: as §4

[13] = labelled constituent + catechol, * = synergistic
[14] = labelled constituent + gallic acid, * = synergistic
[15] = labelled constituent combined with catechol
[16] = labelled constituent combined with gallic acid

For `O=Cc1ccc(O)c(O)c1` [catechaldehyde, 3,4-dihydroxybenzaldehyde], the FIC of ciprofloxacin (P. aeruginosa PAO1 [1]) was 0.5, the “FICI, catechol” value (P. aeruginosa PAO1 [1]; [13]) was 0.37* and the “FICI, gallic acid” value (P. aeruginosa PAO1 [1]; [14]) was 0.37*. The “FIC, catechol” value (P. aeruginosa PAO1 [1]; [15]) was 0.25, the “FIC, gallic acid” value (P. aeruginosa PAO1 [1]; [16]) was 0.13 and the FICI (P. aeruginosa PAO1 [1]) was 1.01. For the same molecule, the FIC of compound (P. aeruginosa PAO1 [1]) was 0.51, the FIC of ciprofloxacin (P. aeruginosa PA14 [2]) was 1 and the “FICI, catechol” value (P. aeruginosa PA14 [2]; [13]) was 0.5*. For the same molecule, the “FICI, gallic acid” value (P. aeruginosa PA14 [2]; [14]) was 0.5*, the “FIC, catechol” value (P. aeruginosa PA14 [2]; [15]) was 0.25 and the “FIC, gallic acid” value (P. aeruginosa PA14 [2]; [16]) was 0.25. The FICI (P. aeruginosa PA14 [2]) was 2, the FIC of compound (P. aeruginosa PA14 [2]) was 1 and the MIC (P. mirabilis HI4320 [3]) was 1250 µg/mL (≈ 9.05 mM). It also gave an MIC (P. aeruginosa PAO1 [4]) of 1250 µg/mL (≈ 9.05 mM), an MIC (P. aeruginosa PA14 [5]) of 1250 µg/mL (≈ 9.05 mM) and an MIC (E. coli CFT073 [6]) of 1250 µg/mL (≈ 9.05 mM). The FIC of ciprofloxacin (P. mirabilis HI4320 [7]) was 0.5, the “FICI, catechol” value (P. mirabilis HI4320 [7]; [13]) was 0.5* and the “FICI, gallic acid” value (P. mirabilis HI4320 [7]; [14]) was 0.37*. The “FIC, catechol” value (P. mirabilis HI4320 [7]; [15]) was 0.25, the “FIC, gallic acid” value (P. mirabilis HI4320 [7]; [16]) was 0.13 and the FICI (P. mirabilis HI4320 [7]) was 1.5. The FIC of compound (P. mirabilis HI4320 [7]) was 1, the FIC of ciprofloxacin (E. coli CFT073 [8]) was 1 and the “FICI, catechol” value (E. coli CFT073 [8]; [13]) was 0.5*. For the same molecule, the “FICI, gallic acid” value (E. coli CFT073 [8]; [14]) was 0.5*, the “FIC, catechol” value (E. coli CFT073 [8]; [15]) was 0.25 and the “FIC, gallic acid” value (E. coli CFT073 [8]; [16]) was 0.25. It also gave an FICI (E. coli CFT073 [8]) of 2 and an FIC of compound (E. coli CFT073 [8]) of 1.

`O=C(O)c1cc(O)c(O)c(O)c1` [gallic acid] was tested, and the FIC of ciprofloxacin (P. aeruginosa PAO1 [1]) was 1, the FICI (P. aeruginosa PAO1 [1]) was 2 and the FIC of compound (P. aeruginosa PAO1 [1]) was 1. The FIC of ciprofloxacin (P. aeruginosa PA14 [2]) was 1, the FICI (P. aeruginosa PA14 [2]) was 2 and the FIC of compound (P. aeruginosa PA14 [2]) was 1. The MIC (P. mirabilis HI4320 [3]) was 5000 µg/mL (≈ 29.4 mM), the MIC (P. aeruginosa PAO1 [4]) was 5000 µg/mL (≈ 29.4 mM) and the MIC (P. aeruginosa PA14 [5]) was 5000 µg/mL (≈ 29.4 mM). It also gave an MIC (E. coli CFT073 [6]) of 5000 µg/mL (≈ 29.4 mM), an FIC of ciprofloxacin (P. mirabilis HI4320 [7]) of 1 and an FICI (P. mirabilis HI4320 [7]) of 2. For the same molecule, the FIC of compound (P. mirabilis HI4320 [7]) was 1, the FIC of ciprofloxacin (E. coli CFT073 [8]) was 1 and the FICI (E. coli CFT073 [8]) was 2. For the same molecule, the FIC of compound (E. coli CFT073 [8]) was 1.

gentamicin [reference compound] was tested, and the “Minimum permeabilization concentration (NPN assay)” value [9] was 0.006 µg/mL, the Minimum permeabilization concentration [10] was 1 µg/mL and the Minimum permeabilization concentration [11] was 1 µg/mL. The Minimum permeabilization concentration [12] was 0.013 µg/mL.
